Results: ChEMBL document CHEMBL1201862, “PubChem BioAssay data set” (2004)
Counter-ions that a name gives are not always drawn.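 Assay format: 96-well plates, 48-hour exposure. GI50 = concentration required for 50% inhibition of growth.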 Active and inactive are the calls of the source. Cut-off read from the data, not from the text of the source: active = GI50 up to about 1.1 µM and inactive = higher.

What was measured:
Assay in all cases: DTP human tumour cell line panel, 48 h
A498 = tested on: A498
A549 = tested on: A549
ACHN = tested on: ACHN
BT-549 = tested on: BT-549
CAKI-1 = tested on: CAKI-1
DU-145 = tested on: DU-145
HT-29 = tested on: HT-29
Hs-578T = tested on: Hs-578T
K562 = tested on: K562
MCF7 = tested on: MCF7
MDA-MB-435 = tested on: MDA-MB-435
OVCAR-8 = tested on: OVCAR-8
RPMI-8226 = tested on: RPMI-8226
SF-268 = tested on: SF-268
SF-539 = tested on: SF-539
SN12C = tested on: SN12C
SNB-75 = tested on: SNB-75
UO-31 = tested on: UO-31
HCC 2998 = tested on: HCC 2998

Row | Structure (SMILES) | GI50 (A498) | GI50 (A549) | GI50 (ACHN) | GI50 (BT-549) | GI50 (CAKI-1) | GI50 (DU-145) | GI50 (HT-29) | GI50 (Hs-578T) | GI50 (K562) | GI50 (MCF7) | GI50 (MDA-MB-435) | GI50 (OVCAR-8) | GI50 (RPMI-8226) | GI50 (SF-268) | GI50 (SF-539) | GI50 (SN12C) | GI50 (SNB-75) | GI50 (UO-31) | GI50 (HCC 2998)
1 | Cc1ccc2c(O)cc(-c3csc4ccccc34)nc2n1 | < 0.01 µM (active) | 0.0164 µM (active) | < 0.01 µM (active) | 0.0183 µM (active) | < 0.01 µM (active) | 0.0163 µM (active) | 0.0173 µM (active) | 0.0101 µM (active) | < 0.01 µM (active) | 0.0131 µM (active) | < 0.01 µM (active) | 0.0202 µM (active) | < 0.01 µM (active) | 0.018 µM (active) | < 0.01 µM (active) | 0.0323 µM (active) | < 0.01 µM (active) | 0.0138 µM (active) | 
2 | Cc1c2cccc-2c(OCCO)cc2c3ccccc3n(C)c12 | 7.59 µM (inactive) | 3.76 µM (inactive) | 5.12 µM (inactive) | 3.45 µM (inactive) | 10.2 µM (inactive) | 6.79 µM (inactive) | 4.24 µM (inactive) | 2.6 µM (inactive) | 3.72 µM (inactive) | 3.65 µM (inactive) | 4.35 µM (inactive) | 2.9 µM (inactive) | 2.81 µM (inactive) | 4.02 µM (inactive) | 2.54 µM (inactive) | 3.13 µM (inactive) | 5.28 µM (inactive) | 2.57 µM (inactive) | 3.64 µM (inactive)
3 | CN1C[C@H](C(=O)N[C@]2(C)O[C@@]3(O)[C@@H]4CCCN4C(=O)[C@H](Cc4ccccc4)N3C2=O)C=C2c3cccc4[nH]cc(c34)C[C@H]21 [ERGOTAMINE TARTRATE] | 15 µM (inactive) | 37.8 µM (inactive) | 21.8 µM (inactive) | 20.9 µM (inactive) | 26.4 µM (inactive) | 22.2 µM (inactive) | 23.9 µM (inactive) | 10.2 µM (inactive) | 25.4 µM (inactive) | 20.7 µM (inactive) | 15.9 µM (inactive) | 19.3 µM (inactive) | 22.9 µM (inactive) | 13.2 µM (inactive) | 12.1 µM (inactive) | 20 µM (inactive) | 35.6 µM (inactive) | 29.1 µM (inactive) | 
4 | COC(NC(N)=O)C(=O)O (stereo not drawn) | > 100 µM (inactive) | > 100 µM (inactive) | > 100 µM (inactive) | > 100 µM (inactive) | > 100 µM (inactive) | > 100 µM (inactive) | > 100 µM (inactive) | > 100 µM (inactive) | > 100 µM (inactive) | > 100 µM (inactive) | > 100 µM (inactive) | > 100 µM (inactive) | > 100 µM (inactive) | > 100 µM (inactive) | > 100 µM (inactive) | > 100 µM (inactive) | > 100 µM (inactive) | > 100 µM (inactive) | 
5 | Nc1nc2c(c(=O)[nH]1)C(c1ccccc1)CC(=O)N2 (stereo not drawn) | > 100 µM (inactive) | > 100 µM (inactive) | > 100 µM (inactive) | > 100 µM (inactive) |  | > 100 µM (inactive) | > 100 µM (inactive) | > 100 µM (inactive) | > 100 µM (inactive) | > 100 µM (inactive) | > 100 µM (inactive) | > 100 µM (inactive) | > 100 µM (inactive) | > 100 µM (inactive) | > 100 µM (inactive) | > 100 µM (inactive) | > 100 µM (inactive) | > 100 µM (inactive) | > 100 µM (inactive)
6 | OC1c2ccccc2CCC1CN1CCN(CCOC(c2ccc(F)cc2)c2ccc(F)cc2)CC1 (stereo not drawn) | 12.3 µM (inactive) | 23.6 µM (inactive) | 21.6 µM (inactive) | 12.4 µM (inactive) | 25.1 µM (inactive) | 21 µM (inactive) |  | 17.9 µM (inactive) | 2.94 µM (inactive) | 14.5 µM (inactive) | 17.5 µM (inactive) | 14.3 µM (inactive) | 5.77 µM (inactive) | 16.6 µM (inactive) | 0.186 µM (active) | 13.1 µM (inactive) | 20.3 µM (inactive) |  | 4.79 µM (inactive)
7 | C#CCCOC(=O)CC1=C(C)/C(=C/c2ccc([S+](C)[O-])cc2)c2ccc(F)cc21 (stereo not drawn) | 10.6 µM (inactive) |  | 19.7 µM (inactive) | 13.8 µM (inactive) | 6.19 µM (inactive) | 17.2 µM (inactive) |  | 13.5 µM (inactive) | 13.2 µM (inactive) | 19.4 µM (inactive) | 4.67 µM (inactive) | 19.7 µM (inactive) | 11 µM (inactive) | 20.6 µM (inactive) | 16.2 µM (inactive) | 19.5 µM (inactive) | 16.3 µM (inactive) | 15.5 µM (inactive) | 10.4 µM (inactive)
8 | CSc1nc(SC)c2c(CN=[N+]=[N-])c(Br)n(Cc3ccccc3)c2n1 | > 100 µM (inactive) | > 100 µM (inactive) | > 100 µM (inactive) | > 100 µM (inactive) | > 100 µM (inactive) | > 100 µM (inactive) | 23 µM (inactive) | 53.1 µM (inactive) |  | > 100 µM (inactive) | 55.7 µM (inactive) | > 100 µM (inactive) | > 100 µM (inactive) | > 100 µM (inactive) | 32.8 µM (inactive) | > 100 µM (inactive) | 51.3 µM (inactive) | > 100 µM (inactive) | > 100 µM (inactive)
